Experimental data: ChEMBL document CHEMBL3046898, “Synthesis and characterization of flurbiprofen hydrazide derivatives as potential anti-HCV, anticancer and antimicrobial agents” (2013)
Activity calls are given as the source filed them. The calls are words filed in the database; no cut-off is given here.

Columns and labels:
Candida tropicalis = test: Antifungal activity against Candida tropicalis at 10 mg/ml after 48 hrs by disc diffusion method; type: functional, organism-based
HCT-116 = test: Cytotoxicity against human HCT116 assessed as cell growth at 10 uM after 48 hrs by SRB assay; type: functional; details: HCT-116, 48 h, read-out: Activity
Klebsiella aerogenes = test: Antibacterial activity against Enterobacter aerogenes at 10 mg/ml after 24 hrs by disc diffusion method; type: functional, organism-based
Photorhabdus luminescens = test: Antibacterial activity against Photorhabdus luminescens at 6.25 to 200 ug/ml after 24 hrs by microwell dilution method; type: functional, organism-based
ACHN = test: Cytotoxicity against human ACHN assessed as cell growth at 10 uM after 48 hrs by SRB assay; type: functional; details: read-out: Activity
SK-MEL-28 = test: Cytotoxicity against human SK-MEL-28 assessed as cell growth at 10 uM after 48 hrs by SRB assay; type: functional; details: SK-MEL-28, 48 h, read-out: Activity
RPMI-8226 = test: Cytotoxicity against human RPMI8226 assessed as cell growth at 10 uM after 48 hrs by SRB assay; type: functional; details: RPMI-8226, 48 h, read-out: Activity

Compound: CC(C(=O)NN1C(=O)CSC1c1ccc(C(F)(F)F)cc1)c1ccc(-c2ccccc2)c(F)c1 (configuration not stated)
- Activity (Candida tropicalis): inactive
- growth at 10 µM (HCT-116): 45.5%
- Activity (Klebsiella aerogenes): inactive
- Activity (Photorhabdus luminescens): inactive
- growth at 10 µM (ACHN): 59.6%
- growth at 10 µM (SK-MEL-28): 99.9%
- growth at 10 µM (RPMI-8226): 43.3%
